In patent US20060127890A1, “Novel gene overexpressed in heart and skeletal muscle and use thereof” (priority 2000, published 2006):

Test system: rat 187-2 gene
Test: Expression analysis of the rat 187-2 gene in H9c2 cells by TaqMan PCR upon norepinephrine stimulation
Format: cell-based
Details: serum-free DMEM, norepinephrine 10 nM or 100 nM, after 4 and 8 hours, corrected on G3PDH, versus absence of norepinephrine
Procedure: H9c2 cells are a cell strain derived from rat myocardial cells, and were purchased from ATCC. The cells were cultured in DMEM medium containing 10% bovine serum, and the cells were recovered using trypsin, inoculated at a density of 100000 cells/well of a 12-well plate and cultured for 12 hours in DMEM medium containing 10% bovine serum. Thereafter, the medium was exchanged with serum-free DMEM, and 10 nM norepinephrine was added at a concentration of 10 nM or 100 nM to the medium, and after 4 and 8 hours, the amount of the rat 187-2 gene expressed was quantified by TaqMan PCR.

NC[C@H](O)c1ccc(O)c(O)c1 [norepinephrine]
amount of the rat 187-2 gene expressed (maximum level): about twice that in the absence of norepinephrine
